Laboratory results as given in patent US12419308B2, “Phenylpyrazole insecticide compounds and compositions” (priority 2023, dated 2025).
Where two headings read alike, the source gives them in different places.

Columns and labels:
[1] = test system: adult worker honeybees, Apis mellifera L; assay: Acute oral toxicity test in honeybees (OECD 213); type: in vivo
Procedure: Untreated 50% w/v sucrose solution with 0.2% of propanol-water solution (ratio 80%-20%) is used as a negative control.
The test item is diluted with aqueous sucrose solution 50% (w/v) to prepare the oral solutions. The bees used for the oral test are anesthetized with carbon dioxide for the time necessary to immobilize them and placed inside the test cages; 2 hours before the treatment they are starved. A volume of 200 μL (20 μL/bee) of treated diet is administered to each cage with a dispenser (e.g., a syringe without tip), weighed before and after filling.
The overall exposure period is 6 hours, during which consumption is monitored: the feeder is changed at the end of the six hours or once the treated diet has been consumed (usually within 3-4 hours). In both cases, the feeder is weighed and a new feeder with untreated 50% (w/v) sucrose solution is provided ad libitum, and the mean effective dose is calculated based on the actual consumption.

[2] = test system: adult worker honeybees, Apis mellifera L; settings: contact
Excerpt: In accordance with OECD Test Guidelines No. 213 and 214, the test is considered valid if: (1) the average mortality of the control groups is ≤10% at the end of the test; and the average, control-corrected mortality of the reference item groups is ≥50% at the end of the test, at the tested dose (internal validity criteria according to POS BT200).
Young Apis mellifera L. worker honeybees are randomly collected in the morning of use or the day before from an adequately fed, healthy diseases-free and queen right beehive, not treated with chemical substances. Hives from an established apiary colony are used, and the colonies are inspected periodically, according to standard bee-keeping practices. All colonies are kept outside under field conditions and bees collect food from the environment. The last treatment against Varroa mites was done in November 2023. The bees are fed ad libitum with a water sucrose solution 50% w/v (or 500 g/L), prepared with tap water.
Adult worker honeybees are exposed to three increasing doses of the test item (see Table 2) by direct application to the thorax (droplets, see section 4.5.2). One control group is treated with propanol-water solution (ratio 80%-20%) in addition to test item groups.
Bee mortality is recorded after 4, 24 and 48 hours, and compared with the control value. If the mortality rate increases by more than 10% between 24 and 48 hours, whilst the control mortality rate remains ≤10%, the is extended to a maximum of 96 hours.
The test item is diluted in propanol-water solution (ratio 80%-20%) to prepare the contact solutions.
The bees used for the contact test are anaesthetized with carbon dioxide and individually treated by topical application of 2 μL of the test solutions onto the thorax using a micro applicator. The honeybees are then be moved to the cages and fed ad libitum with sucrose solution.
Disposable and well-ventilated cages with an internal volume not lower than 200 cm^3 are used. Each cage is equipped with a transparent lid, for a suitable observation of the bees from outside. The upper side of the cage has at least one hole for inserting the feeder: a syringe filled of 50% (w/v) aqueous sucrose solution is inserted in one hole.
The tests are conducted under the following conditions: (a) Temperature: 25.00[…]; (b) Relative humidity: 60.00[…], The honeybees are kept under constant darkness except during the assessments. Throughout the experimental phase, the temperature and relative humidity is continuously recorded with a dedicated data-logger with sensors located close to the test units.
The number of dead honeybees per cage is recorded after 4, 24 and 48 hours. If a prolonged observation period is required, further assessments are made every 24 hours, tip to a maximum duration of 96 hours. The amount of diet consumed per group is quantitatively estimated if treated diet will be left after 6 hours of exposure.
Data is summarized in tabular form, showing the number of live, dead and abnormal bees per experimental group. The mortality of each replicate is calculated as a percentage, comparing the number of dead bees to those introduced at the beginning. The mean value of the treated group is compared to the mean mortality of the respective control group(s) using the Abbott's formula modified by Schneider-Orelli (POS BT 200): […]

Structure (SMILES): N#Cc1nn(-c2c(Cl)cc(C(F)(F)F)cc2Cl)c2nc(O)cc(C(F)(F)F)c12 [Example 1, 1-(2,6-dichloro-4-(trifluoromethyl)phenyl)-6-hydroxy-4-(trifluoromethyl)-1H-pyrazolo[3,4-b]pyridine-3-carbonitrile]
- % CM (4 hours) ([1]; group T1, dose 0.002 μg/bee): 0.0%
- % CM (24 hours) ([1]; group T1, dose 0.002 μg/bee): 0.0%
- % CM (48 hours) ([1]; group T1, dose 0.002 μg/bee): 0.0%
- % CM (4 hours) ([1]; group T2, dose 0.004 μg/bee): 0.0%
- % CM (24 hours) ([1]; group T2, dose 0.004 μg/bee): 19.2%
- % CM (48 hours) ([1]; group T2, dose 0.004 μg/bee): 17.4%
- % CM (4 hours) ([1]; group T3, dose 0.006 μg/bee): 0.0%
- % CM (24 hours) ([1]; group T3, dose 0.006 μg/bee): 15.4%
- % CM (48 hours) ([1]; group T3, dose 0.006 μg/bee): 13.0%
- % CM (4 hours) ([2]; group T1, dose 0.002 μg/bee): 0.0%
- % CM (24 hours) ([2]; group T1, dose 0.002 μg/bee): 7.1%
- % CM (48 hours) ([2]; group T1, dose 0.002 μg/bee): 0.0%
- % CM (4 hours) ([2]; group T2, dose 0.004 μg/bee): 0.0%
- % CM (24 hours) ([2]; group T2, dose 0.004 μg/bee): 0.0%
- % CM (48 hours) ([2]; group T2, dose 0.004 μg/bee): 0.0%
- % CM (4 hours) ([2]; group T3, dose 0.006 μg/bee): 0.0%
- % CM (24 hours) ([2]; group T3, dose 0.006 μg/bee): 50.0%
- % CM (48 hours) ([2]; group T3, dose 0.006 μg/bee): 57.7%
